From paper PMC13286573, “Exploration of precision coregulator TR-FRET identifies diverse signatures for LXR ligands relevant to discovery of nonlipogenic ABCA1 inducers” (eLife, 2026)

Key:
PXR = target: T1, PXR (Homo sapiens, UniProt O75469); assay: Coactivator SRC1-4 recruitment Lanthascreen PXR; assay type: biochemical; conditions: benchmark SR12813
T1 sequence (O75469 146-433 limits assumed): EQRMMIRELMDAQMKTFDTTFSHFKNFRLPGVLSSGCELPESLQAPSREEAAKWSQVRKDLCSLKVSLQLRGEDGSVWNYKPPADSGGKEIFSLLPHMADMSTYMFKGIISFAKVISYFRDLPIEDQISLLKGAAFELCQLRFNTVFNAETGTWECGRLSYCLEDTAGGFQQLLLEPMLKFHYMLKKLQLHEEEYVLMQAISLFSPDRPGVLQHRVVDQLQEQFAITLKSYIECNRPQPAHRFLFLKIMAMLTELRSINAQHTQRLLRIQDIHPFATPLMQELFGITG

LXR [1] = assay: Multiplex precision CRT (pCRT), SRC1 and NCOR2, LXR isoform not specified; assay type: biochemical; conditions: pCRT versus monoplex CRT
C57Bl/6 mice = test system: C57Bl/6 mice; design: method as in Miao et al., 2004; conditions: ref Miao et al., 2004, cited from earlier work
Hamsters = test system: Hamsters; design: method as in Groot et al., 2005; conditions: ref Groot et al., 2005; cited from earlier work
cynomolgus monkeys = test system: cynomolgus monkeys; design: method as in Groot et al., 2005; conditions: ref Groot et al., 2005; cited from earlier work
LXRβ [2] = target: T2, LXRβ (Homo sapiens, UniProt P55055); assay: SRC-1 coactivator recruitment to LXRβ, coregulator TR-FRET (CRT); assay type: biochemical; design: The CRT selectivity assay incorporates GST-tagged LXR-LBD; purchased Thermo Fisher Scientific PV4660
T2 sequence (P55055 222-460 limits assumed): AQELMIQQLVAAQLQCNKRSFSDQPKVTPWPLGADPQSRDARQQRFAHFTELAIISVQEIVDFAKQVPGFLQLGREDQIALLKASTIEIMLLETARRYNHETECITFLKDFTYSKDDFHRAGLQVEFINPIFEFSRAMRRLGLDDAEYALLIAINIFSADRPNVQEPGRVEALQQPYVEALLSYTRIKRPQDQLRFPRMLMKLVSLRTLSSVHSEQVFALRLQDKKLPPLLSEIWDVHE

LXRα [3] = target: T3, LXRα (Homo sapiens, UniProt Q13133); assay: NCOR2 corepressor binding to LXRα, CRT; assay type: biochemical; design: The CRT selectivity assay incorporates GST-tagged LXR-LBD; purchased Thermo Fisher Scientific PV4657; conditions: for activity at 1 µM: ligand 1 µM, interpolated from concentration-response, normalized, heat map Figure 9A, read-out: NCOR2α, relative % activity at 1 μM; for Effect on NCOR2 binding to LXRα: monoplex CRT, absence of SRC1
T3 sequence (Q13133 209-447 limits assumed): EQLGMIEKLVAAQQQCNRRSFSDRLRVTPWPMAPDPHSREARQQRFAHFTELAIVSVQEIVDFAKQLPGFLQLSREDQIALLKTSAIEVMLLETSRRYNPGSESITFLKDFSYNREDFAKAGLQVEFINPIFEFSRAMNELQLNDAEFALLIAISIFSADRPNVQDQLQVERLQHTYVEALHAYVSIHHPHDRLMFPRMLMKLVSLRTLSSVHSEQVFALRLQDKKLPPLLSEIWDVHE

LXRβ [4] = target: T2, LXRβ; assay: NCOR2 corepressor binding to LXRβ, CRT; assay type: biochemical; design: The CRT selectivity assay incorporates GST-tagged LXR-LBD; purchased Thermo Fisher Scientific PV4660; conditions: for Effect on NCOR2 binding to LXRβ: monoplex CRT, absence of SRC1; for activity at 1 µM: read-out: NCOR2β, relative % activity at 1 μM
LXRα [5] = target: T3, LXRα; assay: SMRT2 corepressor binding to LXRα, CRT; assay type: biochemical; design: The CRT selectivity assay incorporates GST-tagged LXR-LBD; purchased Thermo Fisher Scientific PV4657; conditions: for activity at 1 µM: ligand 1 µM, interpolated from concentration-response, normalized, heat map Figure 9A, read-out: SMRT2α, relative % activity at 1 μM
LXRβ [6] = target: T2, LXRβ; assay: SMRT2 corepressor binding to LXRβ, CRT; assay type: biochemical; design: The CRT selectivity assay incorporates GST-tagged LXR-LBD; purchased Thermo Fisher Scientific PV4660; conditions: for activity at 1 µM: read-out: SMRT2β, relative % activity at 1 μM
LXRα [7] = target: T3, LXRα; design: The CRT selectivity assay incorporates GST-tagged LXR-LBD; purchased Thermo Fisher Scientific PV4657; method as in Albers et al., 2006; conditions: >1 µM; ref Albers et al., 2006; cited from earlier work
RXRα = target: T4, RXRα (Homo sapiens, UniProt P19793); assay: Coactivator D22 recruitment Lanthascreen RXRα; assay type: biochemical; conditions: normalized to SR11237
T4 construct: the reductionist system of NR-LBD with short coregulator peptides as used in the present work; purchased Thermo Fisher Scientific PV4799

[8] = test system: sterol response element (SRE); assay: SRE-luc reporter assay in HepG2 cells; assay type: cell-based, human
Description: Our phenotypic high-throughput screen (HTS) approach to identify nonlipogenic ABCA1 Inducers (NLAI) originally used counterscreening with a SREBP1c-luciferase reporter (linked to the SREBF1 gene promoter) in human hepatocarcinoma HepG2 cells ([Ben Aissa et al., 2021]). Unwanted lipogenesis is mediated by LXR agonists via direct transcriptional activation and indirectly by the effects of SREBP1c ([Schultz et al., 2000]; [Brown and Goldstein, 1997]). SREBP1c enhances transcription of genes required for synthesis of fatty acids and TG and as the dominant isoform in liver is associated most closely with lipogenesis and TG elevation ([Brown and Goldstein, 1997]). […] Binding of SREBP1c to the sterol response element (SRE) induces transcription of lipogenic genes associated with elevated TG. To better model the lipogenic axis in hepatocytes, we use HepG2 cells stably transfected with a nanoluciferase reporter downstream of a SRE promoter (SRE-luc), activation of which requires SREBP1c maturation.
HepG2 cells were cotransfected with SRE (LDLR)-NlucP SuperPiggyBac Transposon and a separate Transposase plasmid (System Biosciences). Cells were expanded for multiple passages followed by selection with puromycin (1 μg/ml). Stable cells constitutively express GFP allowed for FACS enrichment and/or cell cloning. Initially, stable pools were compared to low expressing and high expressing enriched pools. The optimal pool was selected based on assay performance (Z’) and was grown and maintained as above, with the addition of 1.0 μg/mL of puromycin biweekly.
Cells were split into flasks containing CS medium (EMEM supplemented with 10% charcoal stripped FBS (Gibco A52567-01)) and 1% P/S and grown at 37 °C /5% CO2 for 48 hr before plating. Cells were plated in 384-well, white clear tissue culture plates (Greiner 781098) and allowed to grow at 37 °C /5% CO2 for 24 hr before medium was aspirated and compound dilutions prepared in CS medium were added. Following a 24 hr incubation, the medium was aspirated, and cells were lysed/luminescence quantified using the Nano-Glo Luciferase Assay System (Promega N1130).

LXR [9] = assay: Corepressor (NCOR2, SMRT2) binding to LXR, CRT, statements across isoforms; assay type: biochemical; conditions: monoplex CRT, absence of coactivator
mice = test system: mice; design: method as in Kick et al., 2015; Kirchgessner et al., 2015; conditions: highest dose 30 mg/kg qd, ref Kick et al., 2015, Kirchgessner et al.; cited from earlier work
[10] = ligand 1 µM, interpolated from concentration-response, normalized, heat map Figure 9A

T4 sequence (P19793 227-458 limits assumed): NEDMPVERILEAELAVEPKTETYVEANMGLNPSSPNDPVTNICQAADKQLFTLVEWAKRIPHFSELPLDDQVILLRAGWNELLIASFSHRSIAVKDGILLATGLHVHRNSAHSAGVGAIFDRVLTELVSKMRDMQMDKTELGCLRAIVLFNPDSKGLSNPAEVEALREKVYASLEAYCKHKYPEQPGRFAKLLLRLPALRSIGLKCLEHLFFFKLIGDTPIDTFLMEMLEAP

O=C(O)Cc1cccc(OCCCN(Cc2cccc(C(F)(F)F)c2Cl)CC(c2ccccc2)c2ccccc2)c1 [GW3965]
PXR agonism/binding in CRT (PXR): no binding to PXR
Left-shift in the NCOR2 displacement curve in presence of SRC1 (LXR [1]): 100 fold
Liver weight and TGs (C57Bl/6 mice; 3 days treatment, GW3965 even at 100 mg/kg/day): no effect on these liver markers
SREBP1c and FAS expression in the liver (C57Bl/6 mice; 3 days treatment): minimal increases in SREBP1c and FAS expression in the liver
ABCA1 expression in peripheral macrophages (C57Bl/6 mice): sevenfold
ABCA1 expression in the small intestine (C57Bl/6 mice): eightfold
Plasma TG, LDL-C and VLDL-C (Hamsters): dose-dependent increase
Plasma LDL, HDL and TG (cynomolgus monkeys): increased LDL and HDL at 7 days treatment only, with no effect on TG
SRC1β, relative % activity at 1 μM (LXRβ [2]): 95.64%
activity at 1 µM (LXRα [3]): 99.1%
Effect on NCOR2 binding to LXRα (LXRα [3]): displacement of NCOR2 from both LXR isoforms
Effect on NCOR2 binding to LXRβ (LXRβ [4]): displacement of NCOR2 from both LXR isoforms
activity at 1 µM (LXRβ [4]): 92.3%
activity at 1 µM (LXRα [5]): 92.4%
activity at 1 µM (LXRβ [6]): 92.5%
Recruitment of NCOR1 to LXRα (LXRα [7]): Weak recruitment of NCOR1 to LXRα

CC1(C)CCC(C)(C)c2cc(C3(c4ccc(C(=O)O)cc4)OCCO3)ccc21 [SR11237]
RXRα CRT response (RXRα): RXRα-selective full agonists

CC(C)(O)c1cn(-c2ccc(-c3cccc(S(C)(=O)=O)c3)cc2)c(C(C)(C)c2ccccc2Cl)n1 [XL652]
SRE activation response/phenotype in HepG2 [8]: little or no activation of SRE at submicromolar concentrations
Efficacy of SRE activation at concentrations ≤1 µM ([8]; concentrations ≤1 µM): 20–25 % of T0
Corepressor (NCOR2, SMRT2) displacement or stabilization, across LXR isoforms (LXR [9]): strongly stabilized the corepressor-bound conformation
Plasma TGs (mice): elevated plasma TGs only at the highest dose
activity at 1 µM (LXRα [3]): 100%
Effect on NCOR2 binding to LXRα (LXRα [3]): weakly destabilized the NCOR2 complex with both LXR isoforms
activity at 1 µM (LXRβ [4]; [10]): 107%
Effect on NCOR2 binding to LXRβ (LXRβ [4]): weakly destabilized the NCOR2 complex with both LXR isoforms
activity at 1 µM (LXRα [5]): 97%
Effect on SMRT2 binding to LXRα (LXRα [5]; monoplex CRT): stabilization of SMRT2 corepressor binding to LXRα
activity at 1 µM (LXRβ [6]; [10]): 102%
Effect on SMRT2 binding to LXRβ (LXRβ [6]; monoplex CRT): did not perturb SMRT2 binding to LXRβ
